Source: the Deep4Chem optical property database
Several values for one entry are separate records, joined by “and”; a condition that tells them apart may be missing. Identical values can stand only once. One block for each molecule: values may come before it.

Assay: solvent given as SMILES
[1] = in c1ccc2c(c1)c1ccccc1n2-c1ccc(-c2ccc(-n3c4ccccc4c4ccccc43)cc2)cc1

Structure (SMILES): CN(C)c1ccc(C2=Cc3cc(Cl)nc[n+]3[B-](F)(F)O2)cc1
fluorescence lifetime (in C1CCOC1): 2.6 ns
fluorescence lifetime (in CC#N): 0.3 ns
fluorescence lifetime (in CCCCCC): 1.9 ns
fluorescence lifetime (in Cc1ccccc1): 2.3 ns
fluorescence lifetime (in ClC(Cl)Cl): 2.5 ns
fluorescence lifetime (in ClCCl): 2.8 ns

Structure (SMILES): COCCOCCOCCOCC(COCCOCCOCCOC)Oc1cc(/C=C/c2ccc(/C=C(\C#N)c3ccc(C(F)(F)F)cc3)cc2)c(OC(COCCOCCOCCOC)COCCOCCOCCOC)cc1/C=C/c1ccc(/C=C(\C#N)c2ccc(C(F)(F)F)cc2)cc1
fluorescence lifetime (in ClCCl): 1.6 ns

Structure (SMILES): [C-]#[N+]c1ccc(-c2ccc(N)cc2)cc1
fluorescence lifetime (in CC#N): 2 ns
fluorescence lifetime (in CCOC(C)=O): 1.7 ns

Structure (SMILES): CCCCCCN(CCCCCC)c1ccc(C#Cc2ccc(-c3ccc(C#Cc4ccc(N(CCCCCC)CCCCCC)cc4)cc3)cc2)cc1
fluorescence lifetime (in Cc1ccccc1): 1 ns

Structure (SMILES): CC1=CC(c2ccc3ccccc3c2)=[O+][B-]2(OC(=O)C(=O)O2)O1
fluorescence lifetime (in CC#N): 18.8 ns
fluorescence lifetime (in ClC(Cl)(Cl)Cl): 5.1 ns

Structure (SMILES): c1cc2cc(c1)c1ccc3ccc4ccc(cc4c3c1)c1ccc3ccc4ccc(cc4c3c1)c1cccc2c1
fluorescence lifetime (in Cc1ccccc1): 4.7 ns

Structure (SMILES): CCN(CC)c1ccc2cc3ccc(=[N+](CC)CC)cc-3oc2c1
fluorescence lifetime (in CC#N): 4.18 ns
fluorescence lifetime (in CCO): 3.89 ns
fluorescence lifetime (in CN(C)C=O): 3.87 ns
fluorescence lifetime (in O): 4.07 ns

Structure (SMILES): CCCCN1C(=O)c2cc(Oc3ccc(C(C)(C)C)cc3)c3c4c(Oc5ccc(C(C)(C)C)cc5)c(Oc5ccc(C(C)(C)C)cc5)c5c6c(cc(Oc7ccc(C(C)(C)C)cc7)c(c7c(Oc8ccc(C(C)(C)C)cc8)c(Oc8ccc(C(C)(C)C)cc8)c(c2c37)C1=O)c64)C(=O)N(CCCC)C5=O
fluorescence lifetime (in ClC(Cl)Cl): 6.3 ns

Structure (SMILES): c1ccc(-c2nnc(-c3ccc(N4c5ccccc5N(c5ccccc5)c5ccccc54)cc3)n2-c2ccccc2)cc1
fluorescence lifetime (in Cc1ccccc1): 3.9 ns
fluorescence lifetime (in c1cc(-n2c3ccccc3c3ccccc32)cc(-n2c3ccccc3c3ccccc32)c1): 3.5 ns

Structure (SMILES): COC(=O)c1nc(Cl)c(-c2ccccc2)o1
fluorescence lifetime (in C1CCCCC1): 0.67 ns

Structure (SMILES): O=C1c2ccc(N(c3ccc(-c4ccccc4)cc3)c3ccc(-c4ccccc4)cc3)cc2C(=O)c2ccc(N(c3ccc(-c4ccccc4)cc3)c3ccc(-c4ccccc4)cc3)cc21
fluorescence lifetime (in Cc1ccccc1): 3.5 ns
fluorescence lifetime [1]: 5.6 ns

Structure (SMILES): CCOC(=O)CN1C(=O)C2=C(c3ccc(N4CCCCC4)cc3)N(CC(=O)OCC)C(=O)C2=C1c1ccc(C#N)cc1
fluorescence lifetime (in CC#N): 3.57 ns
fluorescence lifetime (in CS(C)=O): 3.72 ns
fluorescence lifetime (in Cc1ccccc1): 4.41 ns

Structure (SMILES): Cc1cc(C)c(B(c2cc3ccc4cccc5ccc(c2)c3c45)c2c(C)cc(C)cc2C)c(C)c1
fluorescence lifetime (in Cc1ccccc1): 49 ns

Structure (SMILES): COc1ccsc1-c1ccc(-c2ccc(-c3sccc3OC)s2)s1
fluorescence lifetime (in CCC(C)C): 0.61 ns

Structure (SMILES): COC(=O)C(Cc1ccc2oc(-c3ccc(-n4c5ccccc5c5ccccc54)cc3)nc2c1)NC(=O)OC(C)(C)C (stereo unspecified)
fluorescence lifetime (in C1CCCCC1): 1.37 ns
fluorescence lifetime (in C1CCOC1): 3.32 ns
fluorescence lifetime (in C1COCCO1): 2.49 ns
fluorescence lifetime (in CC1CCCO1): 2.78 ns
fluorescence lifetime (in CC#N): 5.02 ns
fluorescence lifetime (in CC(C)(C)O): 4.03 ns
fluorescence lifetime (in CC(C)=O): 4.28 ns
fluorescence lifetime (in CC(C)CC(C)(C)C): 1.3 ns
fluorescence lifetime (in CC(C)O): 4.49 ns
fluorescence lifetime (in CC(O)CO): 5.74 ns
fluorescence lifetime (in CCCCCCCO): 4 ns
fluorescence lifetime (in CCCCCCO): 4.11 ns
fluorescence lifetime (in CCCCCO): 3.36 ns
fluorescence lifetime (in CCCCO): 4.52 ns
fluorescence lifetime (in CCO): 5.3 ns
fluorescence lifetime (in CCOC(C)=O): 3.08 ns
fluorescence lifetime (in CCOCC): 2.8 ns
fluorescence lifetime (in CN(C)C=O): 4.97 ns
fluorescence lifetime (in CO): 5.34 ns
fluorescence lifetime (in CS(C)=O): 5.45 ns
fluorescence lifetime (in Cc1ccccc1): 1.84 ns
fluorescence lifetime (in OCCO): 6.17 ns

Structure (SMILES): CCOC(=O)CCCCCn1c2ccc(Cl)cc2c(=O)c2cc3c(cc21)c(=O)c1cc(Cl)ccc1n3CCCCCC(=O)OCC
fluorescence lifetime (in CO): 22.1 ns

Structure (SMILES): O=P1(c2ccccc2)c2cc(N3c4ccccc4Oc4ccccc43)ccc2-c2ccc(N3c4ccccc4Oc4ccccc43)cc21
fluorescence lifetime [1]: 23.7 ns

Structure (SMILES): COc1ccc(C2=C3C=c4c(oc5cc6c(cc45)[C@H]4CC[C@]5(C)C(=O)CC[C@H]5[C@@H]4CC6)=[N+]3[B-](F)(F)n3c2cc2c4cc5c(cc4oc23)CC[C@@H]2[C@@H]5CC[C@]3(C)C(=O)CC[C@@H]23)cc1
fluorescence lifetime (in CCOC(C)=O): 3.94 ns
fluorescence lifetime (in CCOCC): 4.04 ns
fluorescence lifetime (in CO): 3.71 ns

Structure (SMILES): COc1cccc2cc(C#N)c(=N)oc12
fluorescence lifetime (in ClCCl): 0.4 ns

Structure (SMILES): CCCCC(CC)CN1C(=O)C2=C(c3ccc(-c4ccc(C5=C6C(C)=CC(C)=[N+]6[B-](F)(F)n6c(C)cc(C)c65)cc4)s3)N(CC(CC)CCCC)C(=O)C2=C1c1ccc(-c2ccc(C3=C4C(C)=CC(C)=[N+]4[B-](F)(F)n4c(C)cc(C)c43)cc2)s1 (stereo unspecified)
fluorescence lifetime (in Cc1ccccc1): 3.36 ns

Structure (SMILES): COc1cc(OC)c(C2=C3C(C)=CC(C)=[N+]3[B-](F)(F)n3c(C)cc(C)c32)c(OC)c1
fluorescence lifetime (in C1CCOC1): 5.7 ns
fluorescence lifetime (in CCCCCC): 6.35 ns

Structure (SMILES): N#Cc1cc2ccc(cc2)c2cccc3cccc(c4ccc(cc4)cc(C#N)c4ccc(cc4)c4cccc5cccc(c6ccc1cc6)c54)c32
fluorescence lifetime (in Cc1ccccc1): 20.6 ns

Further lines, results first:

fluorescence lifetime (in ClC(Cl)Cl): 1.18 ns
Structure (SMILES): CC(C)(C)c1ccc(C2=c3sc(-c4ccc(C(C)(C)C)cc4)c(-c4ccc(C(C)(C)C)cc4)c3=[N+]3C2=Nc2c(-c4ccc(C(C)(C)C)cc4)c4sc(-c5ccc(C(C)(C)C)cc5)c(-c5ccc(C(C)(C)C)cc5)c4n2[B-]3(F)F)cc1

fluorescence lifetime (in ClCCl): 4.2 ns
Structure (SMILES): CC(C)(C)c1ccc2c(c1)c1cc(C(C)(C)C)ccc1n2-c1ccc(C#Cc2ccc(C=C(C#N)C#N)cc2)cc1

fluorescence lifetime (in CCC(C)C): 0.52 ns
fluorescence lifetime (in ClCCl): 0.44 ns
Structure (SMILES): c1csc(-c2ccc(-c3ccc(-c4cccs4)s3)s2)c1

fluorescence lifetime (in ClC(Cl)Cl): 1.69 ns
Structure (SMILES): COc1ccc(C2=c3sc(-c4ccc(OC)cc4)cc3=[N+]3C2=Nc2c(-c4ccc(OC)cc4)c4sc(-c5ccc(OC)cc5)cc4n2[B-]3(F)F)cc1

fluorescence lifetime (in ClCCl): 1.91 ns
Structure (SMILES): CCCCn1c2ccc(C#N)cc2c2cc(C#N)cc(-c3ccc(N(c4ccccc4)c4ccccc4)cc3)c21

fluorescence lifetime (in C1CCOC1): 1.17 ns
Structure (SMILES): C(=C\c1ccccn1)/c1ccc(N(c2ccc(/C=C/c3ccccn3)cc2)c2ccc(-c3nc4ccccc4nc3-c3ccc(N(c4ccc(/C=C/c5ccccn5)cc4)c4ccc(/C=C/c5ccccn5)cc4)cc3)cc2)cc1

fluorescence lifetime (in ClCCl): 11.5 ns
Structure (SMILES): Cc1cc(C)c(-c2c3ccccc3c3ccc4cc5c(-c6c(C)cc(C)cc6C)c6ccccc6c6ccc7cc2c3c4c7c56)c(C)c1

fluorescence lifetime (in C1CCOC1): 2.3 ns
Structure (SMILES): COC(=O)c1ccc(-c2ccc3c(c2)C(=O)c2cc(-c4ccc(C(=O)OC)cc4)ccc2-3)cc1

fluorescence lifetime (in c1cc(-c2cccc(-n3c4ccccc4c4ccccc43)c2)cc(-n2c3ccccc3c3ccccc32)c1): 68 ns
Structure (SMILES): CC1(C)c2ccccc2N(c2ccc3c(c2)c2ccccc2c2nc4ccccc4nc32)c2ccccc21

fluorescence lifetime (in ClCCl): 1.27 ns
Structure (SMILES): CC(C)(C)c1ccc2c(c1)c1cc(C(C)(C)C)ccc1n2-c1ccc(C#Cc2ccc3c4ccc(C#Cc5ccc(/C=C(/C#N)C(=O)O)cc5)cc4n(-c4ccc(C(F)(F)F)cc4)c3c2)cc1

fluorescence lifetime (in CCCCCC): 5.2 ns
fluorescence lifetime (in CCCCCCCCO): 4.65 ns
fluorescence lifetime (in CCOC(C)=O): 4.93 ns
fluorescence lifetime (in CN(C)C=O): 4.41 ns
Structure (SMILES): COc1ccc(C#Cc2c3ccccc3c3n2[B-](F)(F)[N+]2=C(C)C=C(C)C2=C3)cc1

fluorescence lifetime (in C1CCOC1): 1.98 ns
Structure (SMILES): c1ccc(C2=C(c3ccccc3)[Si](c3ccccc3)(c3ccccc3)c3ccccc32)cc1

fluorescence lifetime (in ClC(Cl)Cl): 8.9 ns
Structure (SMILES): CCN(CC)c1ccc2cc(-c3ccc(-c4c5ccccc5c(-c5ccc(-c6cc7ccc(N(CC)CC)cc7oc6=O)cc5)c5ccccc45)cc3)c(=O)oc2c1

fluorescence lifetime (in C1CCOC1): 1.1 ns
fluorescence lifetime (in C1COCCO1): 0.9 ns
fluorescence lifetime (in CC#N): 0.8 ns
fluorescence lifetime (in CCCCCO): 0.7 ns
fluorescence lifetime (in CCCCO): 0.8 ns
fluorescence lifetime (in CCCO): 0.7 ns
fluorescence lifetime (in CCO): 0.6 ns
fluorescence lifetime (in CO): 0.8 ns
fluorescence lifetime (in COCCOC): 1.5 ns
fluorescence lifetime (in ClC(Cl)Cl): 0.6 ns
fluorescence lifetime (in ClCCl): 0.9 ns
fluorescence lifetime (in OCCO): 0.8 ns
Structure (SMILES): O=C(O)c1c2ccccc2nc2ccccc12

fluorescence lifetime (in CC#N): 1.81 ns
Structure (SMILES): Fc1nc(F)c(F)c(C#Cc2ccccc2C#Cc2c(F)c(F)nc(F)c2F)c1F

fluorescence lifetime (in C1CCOC1): 1.6 ns
fluorescence lifetime (in CN1CCCC1=O): 0.2 ns
fluorescence lifetime (in CN(C)C=O): 2.2 ns and 3.9 ns
Structure (SMILES): O=C1c2ccc3c4ccc5c6c(ccc(c7ccc(c2c37)C(=O)N1c1ccc(O)cc1)c64)C(=O)N(c1ccc(O)cc1)C5=O

fluorescence lifetime (in ClCCl): 7.1 ns
Structure (SMILES): F[B-]1(F)n2c(c3cccc4cccc2c43)=Nc2cccc[n+]21

fluorescence lifetime (in ClCCl): 1.39 ns
Structure (SMILES): Cc1c(C(=O)c2ccc(C(F)(F)F)cc2)c2ccc3cccc4c5cccc6ccc1c(c65)c2c34

fluorescence lifetime (in CC#N): 2.46 ns
fluorescence lifetime (in CCO): 2.96 ns
fluorescence lifetime (in CN(C)C=O): 2.84 ns
fluorescence lifetime (in O): 1.49 ns
Structure (SMILES): CCN(CC)c1ccc2c(-c3ccc(S(=O)(=O)[O-])cc3S(=O)(=O)[O-])c3ccc(=[N+](CC)CC)cc-3oc2c1

fluorescence lifetime (in ClCCl): 3.4 ns
Structure (SMILES): CC1=C(c2ccccc2)C(C)=[N+]2C1=C(c1c(-c3ccccn3)nc3ccccn13)c1c(C)c(-c3ccccc3)c(C)n1[B-]2(F)F

fluorescence lifetime (in C1CCOC1): 0.54 ns
Structure (SMILES): Cc1cc(C2=C(c3c(C)sc(-c4ccc(-c5nc(-c6ccccc6)c(-c6ccccc6)[nH]5)cc4)c3C)C(F)(F)C(F)(F)C2(F)F)c(C)s1

fluorescence lifetime (in ClCCl): 1.64 ns
Structure (SMILES): CCCCn1c(-c2ccc(-c3nnc(-c4ccc(-c5nc6c7ccccc7c7ccccc7c6n5CCCC)cc4)o3)cc2)nc2c3ccccc3c3ccccc3c21

fluorescence lifetime (in ClC(Cl)Cl): 4.93 ns
Structure (SMILES): CC(C)(C)N1C(=O)c2c(cc3ccc4cccc5ccc2c3c45)C1O (stereo unspecified)

fluorescence lifetime (in C1CCCCC1): 4.7 ns
Structure (SMILES): c1cc2cccc3c4cccc5cccc(c(c1)c23)c54

fluorescence lifetime (in O): 15.1 ns
Structure (SMILES): Cc1ccc2c(c1)c(=O)c1ccccc1n2CCCCCC(=O)O

fluorescence lifetime (in CC#N): 0.6 ns
fluorescence lifetime (in CO): 9.2 ns
Structure (SMILES): O=C1c2ccccc2-c2c(-c3ccccc3)c(-c3ccccc3)c(-c3ccccc3)c3cccc1c23

fluorescence lifetime (in ClC(Cl)Cl): 1.5 ns
Structure (SMILES): COc1ccc(-c2oc3cccc4c5c(-c6ccc(OC)cc6)c(=N)oc6cccc(c2c34)c65)cc1

fluorescence lifetime (in CCO): 2.29 ns
fluorescence lifetime (in ClC(Cl)Cl): 4.16 ns
fluorescence lifetime (in O): 0.31 ns
Structure (SMILES): CCN(CC)c1ccc2c(c1)oc(=O)c1c(-c3ccccc3C(=O)O)c3ccc(=[N+](CC)CC)cc-3oc12

fluorescence lifetime (in ClCCl): 11.8 ns
Structure (SMILES): COc1ccc(C#Cc2c3cc4ccccc4cc3c(C#Cc3ccc(OC)cc3)c3cc4sc(C)cc4cc23)cc1

fluorescence lifetime (in C1CCOC1): 2.49 ns
fluorescence lifetime (in CC#N): 2.97 ns
fluorescence lifetime (in CCO): 3.29 ns
fluorescence lifetime (in CS(C)=O): 4.06 ns
Structure (SMILES): CCOC(=O)c1ccccc1-c1c2ccc(=O)cc-2oc2cc(OC(=O)[C@H](CSCc3ccc(C)cc3)NC(=O)OC(C)(C)C)ccc12
